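Protocol summary: plate cells (96-well), add compound at 5 concentrations, incubate 48 h, interpolate endpoints linearly. GI50 is the concentration that inhibits growth by half. TGI is the concentration that stops growth completely.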
Key:
Experiment in all cases: NCI tumour cell line growth inhibition, 48 h
UACC-257 melanoma = system: UACC-257 melanoma
MALME-3M melanoma = system: MALME-3M melanoma
RXF 393 renal = system: RXF 393 renal
NCI-H460 lung = system: NCI-H460 lung
HOP-92 NSCLC = system: HOP-92 NSCLC
KM12 colon = system: KM12 colon
SNB-75 CNS = system: SNB-75 CNS
SF-539 CNS = system: SF-539 CNS
NCI-H226 lung = system: NCI-H226 lung
CCRF-CEM leukemia = system: CCRF-CEM leukemia

| SMILES | GI50 (UACC-257 melanoma) | TGI (UACC-257 melanoma) | GI50 (MALME-3M melanoma) | TGI (MALME-3M melanoma) | GI50 (RXF 393 renal) | TGI (RXF 393 renal) | GI50 (NCI-H460 lung) | TGI (NCI-H460 lung) | GI50 (HOP-92 NSCLC) | TGI (HOP-92 NSCLC) | GI50 (KM12 colon) | TGI (KM12 colon) | GI50 (SNB-75 CNS) | TGI (SNB-75 CNS) | GI50 (SF-539 CNS) | TGI (SF-539 CNS) | GI50 (NCI-H226 lung) | TGI (NCI-H226 lung) | GI50 (CCRF-CEM leukemia) | TGI (CCRF-CEM leukemia) |
| --- | --- | --- | --- | --- | --- | --- | --- | --- | --- | --- | --- | --- | --- | --- | --- | --- | --- | --- | --- | --- |
| Cc1c(C)n(CC(O)CNC2CCCCC2C)c2ccccc12 (configuration not stated) | 16.2 µM | 31 µM | 14.2 µM | 30.1 µM | 10.5 µM | 23 µM | 15.7 µM | 31 µM | 4.76 µM | 17.8 µM | 15.3 µM | 28.9 µM | 10.1 µM | 21.7 µM | 15.8 µM | 30.4 µM | 17.2 µM | 35.9 µM | – | – |
| COc1ccc(C(=O)OC2C(OC3C(O)COC(O[C@H]4C[C@H]5[C@@H]6CC=C7C[C@@H](O)CC[C@]7(C)[C@H]6CC[C@]5(C)[C@H]4[C@H](C)C(=O)CCC(C)C)C3OC(=O)C(C)C)OCC(O)C2O)cc1 (some centres not stated) | 0.0342 µM | 0.114 µM | 0.0411 µM | 2.88 µM | < 0.00275 µM | 0.0158 µM | 0.0108 µM | 0.538 µM | 0.0208 µM | 3.1 µM | 0.0707 µM | 4.77 µM | 0.00698 µM | 4.9 µM | < 0.00275 µM | 0.0289 µM | – | – | 0.00574 µM | 0.0317 µM |
| CN(C(=N)c1ccccc1)c1ccccc1 | – | – | – | – | – | – | – | – | – | > 100 µM | – | > 100 µM | – | > 100 µM | – | > 100 µM | – | > 100 µM | – | > 100 µM |
| CC(C)(C)c1cc(O)c2c(c1O)C(=O)CCC2 | – | 74.3 µM | – | – | – | 90.4 µM | – | > 100 µM | – | 21.1 µM | – | – | – | > 100 µM | – | > 100 µM | – | – | – | > 100 µM |
| C[C@]12CC/C(=N\O)C[C@@H]1CC[C@@H]1[C@@H]2CC[C@]2(C)/C(=N/O)CC[C@@H]12 | 37.6 µM | > 100 µM | – | – | 34.1 µM | 71.4 µM | 34.2 µM | > 100 µM | > 100 µM | > 100 µM | 20.9 µM | 47.4 µM | 37.3 µM | > 100 µM | 37.9 µM | > 100 µM | – | – | – | – |
| COC(=O)CCC(=O)Nc1cccc(C(F)(F)F)c1 | – | > 100 µM | – | > 100 µM | – | > 100 µM | – | > 100 µM | – | > 100 µM | – | > 100 µM | – | > 100 µM | – | > 100 µM | – | – | – | > 100 µM |
| Cc1ccc2oc(=O)cc(CC(=O)O)c2c1 | – | – | – | > 100 µM | – | > 100 µM | – | > 100 µM | – | > 100 µM | – | > 100 µM | – | > 100 µM | – | > 100 µM | – | > 100 µM | – | > 100 µM |
| CCCCCCCC(=O)SCC/C=C/[C@@H]1CC(=O)NCc2cccc(n2)C2=N[C@@](C)(CS2)C(=O)N[C@@H](C(C)C)C(=O)O1 | – | – | – | – | 0.0534 µM | 0.207 µM | 0.0167 µM | > 33.3 µM | 0.0841 µM | 0.52 µM | 0.0719 µM | 5.95 µM | 0.029 µM | > 33.3 µM | 0.0563 µM | > 33.3 µM | 0.21 µM | > 9.23 µM | 0.112 µM | > 33.3 µM |
| O=C1C[C@@H]2[C@@H](C=CC23CC3)N1O | – | > 100 µM | – | > 100 µM | – | > 100 µM | – | > 100 µM | – | – | – | > 100 µM | – | > 100 µM | – | > 100 µM | – | > 100 µM | – | > 100 µM |
| COc1cc(-c2nn(-c3ccc(NC(=O)Nc4ccc(Cl)c(C(F)(F)F)c4)cc3)cc2-c2ccncc2)ccc1Cl | 1.64 µM | 3.69 µM | – | – | 1.54 µM | 4.41 µM | 1.71 µM | 3.62 µM | 1.82 µM | 5.85 µM | 1.36 µM | 2.87 µM | 1.28 µM | 4.03 µM | 1.76 µM | 3.98 µM | 2.14 µM | 7.22 µM | 1.42 µM | 7.01 µM |
| CC(C)(C)n1nc(C2CC2)cc1NC(=O)Nc1ccc(Cl)cc1 | – | > 100 µM | – | > 100 µM | – | > 100 µM | – | > 100 µM | – | > 100 µM | – | > 100 µM | – | > 100 µM | – | > 100 µM | – | > 100 µM | – | – |
| CCOC(=O)NC(=O)c1cn(CC(=O)NCC(=O)NCC(=O)N2CCN(CCn3c(C)nc(C(N)=O)c3N)CC2)c(=O)[nH]c1=O | – | > 100 µM | – | > 100 µM | – | – | – | > 100 µM | – | > 100 µM | – | > 100 µM | – | > 100 µM | – | > 100 µM | – | – | – | > 100 µM |
| CN(Cc1ccccc1)c1ncnc2ccc(Br)cc12 | – | – | 10.9 µM | 23.2 µM | 13.7 µM | 31 µM | 10.3 µM | 26 µM | 7.16 µM | 25.8 µM | 11.9 µM | 25.5 µM | – | – | – | – | 13.8 µM | 39.1 µM | 13.6 µM | 38.7 µM |
| CCCCN1C(=O)C2c3[nH]c4ccccc4c3C3CCCCC3C2C1=O (mixture of isomers) | – | – | – | – | – | – | – | 31.2 µM | – | – | – | – | – | 21.9 µM | – | 28.6 µM | – | – | – | 37.5 µM |
| Nc1ncnc2c1ncn2C1OC(CO)CC1O (configuration not stated) | – | > 100 µM | – | – | – | > 100 µM | – | – | – | > 100 µM | – | > 100 µM | – | > 100 µM | – | > 100 µM | – | > 100 µM | – | > 100 µM |
| COc1ccc(C(=C(C#N)C#N)c2ccc(OC)cc2)cc1 | – | > 100 µM | – | – | – | > 100 µM | – | > 100 µM | – | – | – | > 100 µM | – | – | – | > 100 µM | – | > 100 µM | – | > 100 µM |
| OCC(O)C(O)C(O)c1nn[nH]n1 (configuration not stated) | – | – | – | > 100 µM | – | – | – | > 100 µM | – | > 100 µM | – | > 100 µM | – | > 100 µM | – | > 100 µM | – | > 100 µM | – | > 100 µM |
| CC1=CC[C@@H]2[C@@H](CC[C@@]2(C)O)C(C)(C)[C@H]1CC[C@@H]1[C@@]2(C)CC[C@@H](O)C(C)(C)O[C@@H]2CC[C@]1(C)O | – | 81 µM | – | – | – | – | – | 34.8 µM | – | 37.1 µM | – | – | – | – | – | 44 µM | – | – | – | – |
| Nc1nc2ccccc2c2[nH]c3ccccc3c12 | 1.64 µM | 2.99 µM | 1.61 µM | 3.19 µM | 0.311 µM | 1.48 µM | – | – | – | – | 1.04 µM | 3.26 µM | 5.49 µM | 16.4 µM | 1.76 µM | 3.37 µM | 9.74 µM | 37.2 µM | – | – |
| COc1cc(/C=C/C(=O)c2ccc(F)cc2)ccc1OCCCCOc1cc2c(cc1OC)C(=O)N1CCCC1C=N2 (configuration not stated) | – | – | 0.835 µM | 18.3 µM | 1.07 µM | 9.21 µM | 0.83 µM | 6.67 µM | – | 0.673 µM | 0.762 µM | 7.71 µM | 0.994 µM | 15 µM | 0.641 µM | 1.62 µM | 0.683 µM | 1.7 µM | 0.285 µM | 1.88 µM |

Reference: PubChem BioAssay (NCI)
